According to patent US20040228804A1, “Nasal administration of xylitol to a non-human mammal” (priority 2003, published 2004):

Legend:
[1] = tested on: pathogenic bacteria; settings: several pathogenic bacteria exposed to xylitol; cited from earlier work
[2] = tested on: shipping fever; assay: treating cattle with xylitol in solution to reduce or prevent shipping fever; type: in vivo; settings: 1% xylitol in solution; lower limit of tested effectiveness
Excerpt: (§1) Embodiments of the present invention are directed to treating cattle with xylitol in solution in order to reduce or prevent shipping fever, and/or ailments associated with close quartering of cattle. The solution may be a saline based solution for some embodiments, but the solution may also have just a water base. A maximum strength may be a saturated solution comprising approximately of 64 grams of xylitol per 100 cubic centimeters (cc's) of solution. The inventor has yet to determine a precise lower limit of xylitol that would be effective, but as little as 1% xylitol in solution has shown to be effective. It should be understood however, that a 1% xylitol in solution should not be construed as a lower limit of effectiveness; rather, this is only the lower limit of tested effectiveness. Smaller percentages of the xylitol in solution may likewise be effective, and thus their use would be within the scope and spirit of the invention.
The precise mode of application of the xylitol in solution may vary substantially. In at least some embodiments, nostrils of the cattle may be treated directly prior to close quartering, such as shipping. In particular, in these embodiments the xylitol in solution be applied to each nostril of each animal in the form of a mist (nebulized), which application preferably takes place for approximately two respiratory cycles of the animal for each nostril. […]

[3] = saturated solution of xylitol (maximum strength); type: physicochemical; settings: saline or water based solution
Excerpt: as §1

saturated solution, xylitol per 100 cubic centimeters of solution [3]: ~64 grams per 100 cubic centimeter
Compound: OC[C@@H](O)[C@H](O)[C@@H](O)CO [xylitol]
adherence of bacteria to their environment [1]: less adherent
effectiveness of xylitol in solution [2]: effective
